Experiments:
Format in all cases: binding
[1] = target: T1, SW480 colon carcinoma cells lysate proteins (Homo sapiens, UniProt P00558); conditions: PreyGene PGK1
T1 sequence (P00558 1-417): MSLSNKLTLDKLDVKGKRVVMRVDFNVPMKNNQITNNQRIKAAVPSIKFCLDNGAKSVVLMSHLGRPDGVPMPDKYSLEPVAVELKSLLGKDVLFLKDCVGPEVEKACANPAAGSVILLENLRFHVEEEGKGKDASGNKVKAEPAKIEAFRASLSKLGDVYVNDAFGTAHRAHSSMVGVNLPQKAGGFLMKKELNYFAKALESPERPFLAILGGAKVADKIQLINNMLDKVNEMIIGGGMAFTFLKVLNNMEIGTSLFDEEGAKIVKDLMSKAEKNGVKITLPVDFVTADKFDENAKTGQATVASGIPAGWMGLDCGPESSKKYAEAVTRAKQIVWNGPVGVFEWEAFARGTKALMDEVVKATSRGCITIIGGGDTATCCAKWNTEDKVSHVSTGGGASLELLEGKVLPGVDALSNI

[2] = target: T2, SW480 colon carcinoma cells lysate proteins (Homo sapiens, UniProt P11586); conditions: PreyGene MTHFD1
T2 sequence (P11586 1-935): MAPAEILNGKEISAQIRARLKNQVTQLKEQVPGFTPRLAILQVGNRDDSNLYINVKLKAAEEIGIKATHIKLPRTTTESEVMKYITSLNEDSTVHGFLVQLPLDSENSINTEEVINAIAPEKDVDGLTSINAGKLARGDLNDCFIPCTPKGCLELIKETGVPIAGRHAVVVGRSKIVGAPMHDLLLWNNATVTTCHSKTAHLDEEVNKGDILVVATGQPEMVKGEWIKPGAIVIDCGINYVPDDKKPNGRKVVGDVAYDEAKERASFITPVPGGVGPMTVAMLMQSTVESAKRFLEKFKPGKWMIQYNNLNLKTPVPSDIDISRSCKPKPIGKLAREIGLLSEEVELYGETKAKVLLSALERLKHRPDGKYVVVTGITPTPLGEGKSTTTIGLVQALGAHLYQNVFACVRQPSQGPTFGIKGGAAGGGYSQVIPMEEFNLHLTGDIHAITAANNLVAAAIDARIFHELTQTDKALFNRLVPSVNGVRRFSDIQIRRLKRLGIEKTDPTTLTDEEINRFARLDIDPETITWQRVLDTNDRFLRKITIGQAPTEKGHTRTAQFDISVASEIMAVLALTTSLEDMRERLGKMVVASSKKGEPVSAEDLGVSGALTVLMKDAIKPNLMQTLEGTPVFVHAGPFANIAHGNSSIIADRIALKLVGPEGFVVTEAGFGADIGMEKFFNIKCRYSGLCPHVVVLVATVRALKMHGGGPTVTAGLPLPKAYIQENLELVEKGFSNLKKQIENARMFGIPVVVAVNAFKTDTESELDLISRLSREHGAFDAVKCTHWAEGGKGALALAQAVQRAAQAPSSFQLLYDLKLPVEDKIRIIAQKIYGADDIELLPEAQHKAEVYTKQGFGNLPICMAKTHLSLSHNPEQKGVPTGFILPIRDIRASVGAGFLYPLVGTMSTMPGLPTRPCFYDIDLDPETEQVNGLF

[3] = target: T3, SW480 colon carcinoma cells lysate proteins (Homo sapiens, UniProt P53618); conditions: PreyGene COPB1
T3 sequence (P53618 1-953): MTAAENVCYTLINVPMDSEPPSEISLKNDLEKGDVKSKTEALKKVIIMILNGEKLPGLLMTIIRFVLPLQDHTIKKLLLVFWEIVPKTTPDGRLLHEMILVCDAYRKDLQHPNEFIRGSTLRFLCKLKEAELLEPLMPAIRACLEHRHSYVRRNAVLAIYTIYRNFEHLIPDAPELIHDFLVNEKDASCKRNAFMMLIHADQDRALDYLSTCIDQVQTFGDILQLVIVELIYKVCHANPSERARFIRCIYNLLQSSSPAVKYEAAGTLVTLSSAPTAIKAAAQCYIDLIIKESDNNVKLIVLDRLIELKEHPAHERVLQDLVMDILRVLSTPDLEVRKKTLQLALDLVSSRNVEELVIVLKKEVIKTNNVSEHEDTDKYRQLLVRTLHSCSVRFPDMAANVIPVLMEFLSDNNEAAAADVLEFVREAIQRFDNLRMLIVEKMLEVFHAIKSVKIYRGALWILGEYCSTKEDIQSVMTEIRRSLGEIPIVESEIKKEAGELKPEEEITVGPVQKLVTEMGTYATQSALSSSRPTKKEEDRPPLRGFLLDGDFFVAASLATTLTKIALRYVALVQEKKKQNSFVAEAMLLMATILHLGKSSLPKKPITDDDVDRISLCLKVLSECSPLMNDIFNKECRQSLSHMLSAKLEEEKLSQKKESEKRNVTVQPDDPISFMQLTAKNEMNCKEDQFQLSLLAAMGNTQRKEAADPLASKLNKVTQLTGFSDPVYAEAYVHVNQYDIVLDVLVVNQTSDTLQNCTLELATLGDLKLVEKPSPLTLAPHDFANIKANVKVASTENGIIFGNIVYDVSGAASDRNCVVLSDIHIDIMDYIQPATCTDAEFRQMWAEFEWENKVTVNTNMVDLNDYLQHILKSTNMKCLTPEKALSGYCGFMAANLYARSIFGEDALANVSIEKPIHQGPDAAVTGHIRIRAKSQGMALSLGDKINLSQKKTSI

C[C@H](Oc1cc(-c2cnn(C3CCNCC3)c2)cnc1N)c1c(Cl)ccc(F)c1Cl [(5)-crizotinib]
AvgP [1]: 0.2466
SC.Exp. 1-1 [1]: 14
SC.Exp. 1-2 [1]: 12
SC.Exp. 2-1 [1]: 0
SC.Exp. 2-2 [1]: 0
Sum (SC.Exp.) [1]: 26
AvgP [2]: 0.2666
SC.Exp. 1-1 [2]: 2
SC.Exp. 1-2 [2]: 2
SC.Exp. 2-1 [2]: 0
SC.Exp. 2-2 [2]: 0
Sum (SC.Exp.) [2]: 4
AvgP [3]: 0.2093
SC.Exp. 1-1 [3]: 1
SC.Exp. 1-2 [3]: 3
SC.Exp. 2-1 [3]: 0
SC.Exp. 2-2 [3]: 0
Sum (SC.Exp.) [3]: 4
